The values below are quoted from earlier work in patent publication US20040101539A1, “Aqueous dispersion of low-melting organic solids” (priority 2002, published 2004).

The conditions of the data set: at 25° C.

In the case of `CCCCCCCCn1sc(Cl)c(Cl)c1=O` [DCOIT, 4,5-dichloro-2-octyl-3(2H)-isothiazolone], the water solubility is reported as 2 ppm.
